Ki data for 21 molecules are collected here from patent publication US8802674B2, “Aminopyrimidine derivatives as LRRK2 modulators” (Genentech, Inc., priority 2011, dated 2014).

The target in this assay is LRRK2 (Homo sapiens (Human), UniProt Q5S007, G2019S). Put plainly: In Vitro LRRK2 LabChip Assay. The class given is biochemical. The method, boiled down:
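Potency (Ki in μM, IC50 or % inhibition) derived from capillary-electrophoresis separation of phospho- and unphosphorylated fluorescent peptide, with Ki fitted by a tight-binding model.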

Chain of LRRK2 (Q5S007 970-2527 G2019S limits assumed): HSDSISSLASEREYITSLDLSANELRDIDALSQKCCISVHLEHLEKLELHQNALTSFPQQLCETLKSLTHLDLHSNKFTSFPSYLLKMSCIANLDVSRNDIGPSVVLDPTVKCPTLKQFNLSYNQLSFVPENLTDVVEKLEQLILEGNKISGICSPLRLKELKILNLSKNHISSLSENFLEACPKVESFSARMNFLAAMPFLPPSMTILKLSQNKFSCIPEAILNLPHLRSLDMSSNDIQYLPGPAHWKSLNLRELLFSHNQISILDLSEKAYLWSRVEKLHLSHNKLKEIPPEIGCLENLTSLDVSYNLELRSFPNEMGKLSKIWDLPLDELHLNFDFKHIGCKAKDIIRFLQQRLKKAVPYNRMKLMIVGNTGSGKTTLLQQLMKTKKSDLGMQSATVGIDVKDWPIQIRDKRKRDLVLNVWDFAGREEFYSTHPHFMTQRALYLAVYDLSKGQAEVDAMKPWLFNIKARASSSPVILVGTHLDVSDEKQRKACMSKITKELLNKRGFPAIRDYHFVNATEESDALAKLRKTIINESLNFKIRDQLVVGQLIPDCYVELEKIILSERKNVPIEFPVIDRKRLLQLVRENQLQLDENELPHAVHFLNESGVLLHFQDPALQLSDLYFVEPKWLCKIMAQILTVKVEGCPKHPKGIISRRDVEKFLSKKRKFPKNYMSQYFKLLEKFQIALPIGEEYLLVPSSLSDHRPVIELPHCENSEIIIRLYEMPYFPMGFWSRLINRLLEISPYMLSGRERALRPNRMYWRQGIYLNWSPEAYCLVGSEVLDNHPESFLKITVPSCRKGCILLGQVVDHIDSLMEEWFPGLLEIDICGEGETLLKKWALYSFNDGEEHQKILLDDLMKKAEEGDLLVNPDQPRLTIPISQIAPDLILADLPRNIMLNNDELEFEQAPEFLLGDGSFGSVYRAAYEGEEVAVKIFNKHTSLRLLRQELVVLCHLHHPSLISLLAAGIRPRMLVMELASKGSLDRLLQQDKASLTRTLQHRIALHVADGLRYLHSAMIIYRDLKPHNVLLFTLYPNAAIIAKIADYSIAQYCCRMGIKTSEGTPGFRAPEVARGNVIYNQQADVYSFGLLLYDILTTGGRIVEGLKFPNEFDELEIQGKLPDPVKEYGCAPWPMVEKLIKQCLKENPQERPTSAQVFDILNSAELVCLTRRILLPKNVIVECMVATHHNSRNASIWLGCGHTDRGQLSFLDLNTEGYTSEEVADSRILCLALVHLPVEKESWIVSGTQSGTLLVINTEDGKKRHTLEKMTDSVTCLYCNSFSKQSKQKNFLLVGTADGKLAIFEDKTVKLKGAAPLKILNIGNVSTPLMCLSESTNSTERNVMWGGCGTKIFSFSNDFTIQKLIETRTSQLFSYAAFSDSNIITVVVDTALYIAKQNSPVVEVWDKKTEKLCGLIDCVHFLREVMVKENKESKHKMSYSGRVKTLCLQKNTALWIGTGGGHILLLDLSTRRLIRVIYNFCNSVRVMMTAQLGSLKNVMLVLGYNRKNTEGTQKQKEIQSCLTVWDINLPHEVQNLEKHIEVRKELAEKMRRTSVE

One may read the Ki as the equilibrium dissociation constant of an inhibitor or competing ligand from its target. Low readings indicate a stronger hold on the target, high ones a looser hold on the target. Turning to `CNc1nc(Nc2ccc(C(=O)N3CCN(CC(F)(F)F)CC3)cc2OC)ncc1Br` [Example 75, [4-(5-Bromo-4-methylamino-pyrimidin-2-ylamino)-3-methoxy-phenyl]-[4-(2,2,2-trifluoro-ethyl)-piperazin-1-yl]-methanone], for the setting “Table 4”, the Ki worked out at 3.8 nM.

For the setting “Table 6”, `CCOc1cc(C(=O)N2CCOCC2)c(F)cc1Nc1ncc(C(F)(F)F)c(NC)n1` [Example 300, [5-Ethoxy-2-fluoro-4-(4-methylamino-5-trifluoromethyl-pyrimidin-2-ylamino)-phenyl]-morpholin-4-yl-methanone] returned a Ki of 9 nM.

In turn, `CNc1nc(Nc2cc(OC)c(C(=O)N3CCCOCC3)cc2Cl)ncc1Cl` [Example 165, [5-Chloro-4-(5-chloro-4-methylamino-pyrimidin-2-ylamino)-2-methoxy-phenyl]-[1,4]oxazepan-4-yl-methanone] gave a Ki (Table 4) of 5.7 nM. In other words, the single-digit nanomolar range.

Consider `CNc1nc(Nc2cc(OC)c(C(=O)NC3(C#N)CC3)cc2Cl)ncc1Cl` [Example 170, 5-Chloro-4-(5-chloro-4-methylamino-pyrimidin-2-ylamino)-N-(l-cyano-cyclopropyl)-2-methoxy-benzamide], for which the affinity (Table 4) corresponds to a Ki of 13.9 nM.

Where the note is “Table 4”, `CNc1nc(Nc2cc(F)c(C(=O)N3C[C@@H](C)O[C@@H](C)C3)cc2OC)ncc1C(F)(F)F` [Example 249, ((2S,6R)-2,6-dimethylmorpholino) (2-fluoro-5-methoxy-4-(4-(methylamino)-5-(trifluoromethyl)pyrimidin-2-ylamino)phenyl) methanone] came in with a Ki of 8 nM.

As to `CNc1nc(Nc2cc(F)c(C(=O)N(C)CC(C)(C)O)cc2OC)ncc1C(F)(F)F` [Example 248, 2-fluoro-N-(2-hydroxy-2-methylpropyl)-5-methoxy-N-methyl-4-(4-(methylamino)-5-(trifluoromethyl)pyrimidin-2-ylamino)benzamide], affinity (Table 4) was put at a Ki of 9.2 nM.

Take `CNc1nc(Nc2cc(OC)c(CC(=O)N3CCOCC3)cc2OC)ncc1C(F)(F)F` [Example 227, 2-[2,5-Dimethoxy-4-(4-methylamino-5-trifluoromethyl-pyrimidin-2-ylamino)-phenyl]-1-morpholin-4-yl-ethanone]: the Ki (Table 4) was determined as 3.7 nM.

For `CCNC(=O)c1ccc(Nc2ncc(C#N)c(NC)n2)c(OC)c1` [Example 203, 4-(5-Cyano-4-methylamino-pyrimidin-2-ylamino)-N-ethyl-3-methoxy-benzamide], for the setting “Table 4”, the Ki is 9.6 nM. This Ki is about 2.6-fold higher than that of the molecule before.

In turn, `CNc1nc(Nc2ccc(C(=O)N3CCOCC3)cc2OC(F)F)ncc1Cl` [Example 7, [4-(5-Chloro-4-methylamino-pyrimidin-2-ylamino)-3-difluoromethoxy-phenyl]-morpholin-4-yl-methanone] had a Ki (Table 4) of 4.9 nM.

Consider `CNc1nc(Nc2cc(OC)c(C(=O)N3CCC(N(C)C)CC3)cc2Cl)ncc1Cl` [Example 151, [5-Chloro-4-(5-chloro-4-methylamino-pyrimidin-2-ylamino)-2-methoxy-phenyl]-(4-dimethylamino-piperidin-1-yl)-methanone], for which the Ki (Table 4) was 2.8 nM.

Molecule `CNc1nc(Nc2cc(OC)c(C(=O)N3CCC(C#N)C3)cc2Cl)ncc1C(F)(F)F` (stereo not drawn) [Example 177, 1-[5-Chloro-2-methoxy-4-(4-methylamino-5-trifluoromethyl-pyrimidin-2-ylamino)-benzoyl]-pyrrolidine-3-carbonitrile] displayed a Ki (Table 4) of 2.9 nM. This Ki and that of the molecule before are within 1.5-fold of each other.

`CNc1nc(Nc2cc(F)c(C(=O)N3CCOCC3)cc2OC)ncc1C(F)(F)F` [Example 239, [2-Fluoro-5-methoxy-4-(4-methylamino-5-trifluoromethyl-pyrimidin-2-ylamino)-phenyl]-moipholin-4-yl-methanone] had a Ki (Table 4) of 2.9 nM.

The molecule `CCNc1nc(Nc2ccc(C(=O)N(C)CCOC)cc2OC)ncc1C(F)(F)F` [Example 302, 4-(4-Ethylamino-5-trifluoromethyl-pyrimidin-2-ylamino)-3-methoxy-N-(2-methoxy-ethyl)-N-methyl-benzamide] yielded a Ki (Table 6) of 2.3 nM. This lies in the single-digit nanomolar range.

The molecule `CNc1nc(Nc2ccc(C(=O)NC3COC3)cc2OC)ncc1C(F)(F)F` [Example 271, 3-Methoxy-4-(4-methylamino-5-trifluoromethyl-pyrimidin-2-ylamino)-N-oxetan-3-yl-benzamide] registered a Ki (Table 6) of 3.7 nM.

Regarding `COCCNc1nc(Nc2ccc(C(=O)N3CCOCC3)cc2OCC(F)(F)F)ncc1Cl` [Example 109, [4-[5-Chloro-4-(2-methoxy-ethylamino)-pyrimidin-2-ylamino]-3-(2,2,2-trifluoro-ethoxy)-phenyl]-morpholin-4-yl-methanone], for the setting “Table 4”, the Ki was 9.6 nM.

In turn, `CNc1nc(Nc2ccc(C(=O)N3CC(F)(F)OC(F)(F)C3)cc2OC)ncc1C#N` [Example 191, 2-(2-methoxy-4-(2,2,6,6-tetrafluoromorpholine-4-carbonyl)phenylamino)-4-(methylamino) pyrimidine-5-carbonitrile] had a Ki (Table 4) of 20.8 nM. Against the preceding molecule, the Ki is about 2.2-fold higher.

The molecule `CNc1nc(Nc2ccc(C(=O)N(C)C)cc2OC)ncc1Cl` [Example 4, 4-(5-Chloro-4-methylamino-pyrimidin-2-ylamino)-3-methoxy-N,N-dimethyl-benzamide] registered a Ki (Table 4) of 6.1 nM.

On to `COc1cc(C(=O)N2CCOCC2)ccc1Nc1ncc(Cl)c(N2CCCCC2)n1` [Example 254, (4-(5-chloro-4-(piperidin-1-yl)pyrimidin-2-ylamino)-3-methoxyphenyl) (morpholino) methanone], for which the affinity (Table 4) corresponds to a Ki of 12.1 nM.

For the setting “Table 4”, `CNc1nc(Nc2ccc(C(=O)N3CCC(C(F)(F)F)C3)cc2OC)ncc1Br` (stereo not drawn) [Example 72, [4-(5-Bromo-4-methylamino-pyrimidin-2-ylamino)-3-methoxy-phenyl]-(3-trifluoromethyl-pyrrolidin-1-yl)-methanone] yielded a Ki of 6.4 nM.

Turning to `COc1cc(C(=O)N2CCOCC2)ccc1Nc1ncc(Cl)c(NCC(C)C)n1` [Example 67, [4-(5-Chloro-4-isobutylamino-pyrimidin-2-ylamino)-3-methoxy-phenyl]-morpholin-4-yl-methanone], where the note is “Table 4”, the Ki turned out to be 4 nM.

`CNc1nc(Nc2ccc(C(=O)N3CCOCC3CO)cc2OC)ncc1Cl` (stereo not drawn) [Example 40, [4-(5-Chloro-4-methylamino-pyrimidin-2-ylamino)-3-methoxy-phenyl]-(3-hydroxymethyl-morpholin-4-yl)-methanone] registered a Ki (Table 4) of 4.4 nM.
